{"source": "paper PMC9058666", "about": "(RSC Advances, 2020)", "key": {"[1]": {"details": "SD, rat, in vivo, po"}, "in vivo": {"experiment": "in vivo", "details": "SD, rat, po, 50 mg/kg"}}, "data": [{"smiles": "O=c1[nH]cc(F)c(=O)[nH]1", "note": "[5-FU, 5-Fluorouracil]", "values": [{"measurement": "Cmax of 5-FU (from Fig. 7, mean plasma concentration-time profile)", "setting": "[1]", "value": 20000, "unit": "ng/mL"}, {"measurement": "time at which Cmax was reached (from Fig. 7)", "setting": "[1]", "value": 0.5, "unit": "h"}, {"measurement": "AUC(0-inf)", "setting": "in vivo", "value": "54600 ± 15000", "unit": "ng·h/mL"}, {"measurement": "AUC(0-t)", "setting": "in vivo", "value": "50400 ± 10800", "unit": "ng·h/mL"}, {"measurement": "Cmax", "setting": "in vivo", "value": "21000 ± 1980", "unit": "ng/mL"}, {"measurement": "Tmax", "setting": "in vivo", "value": "0.667 ± 0.289", "unit": "h"}, {"measurement": "half-life", "setting": "in vivo", "value": "1.47 ± 0.449", "unit": "h"}]}]}
